Measured values as given in article PMC8659337, “Motor domain-mediated autoinhibition dictates axonal transport by the kinesin UNC-104/KIF1A” (PLoS Genetics, 2021).
Substitutions are numbered along the chain they refer to.

Key:
[1] = molecular target: KIF13B T192Y-MD-NC-CC1 mutant (rat); experiment: crystal structure; crystals of the KIF13B T192Y-MD-NC-CC1 mutant (~25 mg/ml), 0.1 M Bis-Tris propane pH 8.2, 30% PEG 20000, sitting drop, 16°C; one molecule in the asymmetric unit, dimer formed by a crystallographic two-fold symmetry axis
KIF13B MD-NC-CC1 [2] = molecular target: T1, KIF13B MD-NC-CC1 (Rattus norvegicus, UniProt A0A0G2K8Z9); experiment: microtubule-stimulated ATPase, malachite green phosphate endpoint assay; format: biochemical; conditions: microtubules present; autoinhibited wild type
T1 construct: MD-NC-CC1 fragment (motor domain, neck coil, CC1)
T1 sequence (A0A0G2K8Z9 48-490 limits assumed): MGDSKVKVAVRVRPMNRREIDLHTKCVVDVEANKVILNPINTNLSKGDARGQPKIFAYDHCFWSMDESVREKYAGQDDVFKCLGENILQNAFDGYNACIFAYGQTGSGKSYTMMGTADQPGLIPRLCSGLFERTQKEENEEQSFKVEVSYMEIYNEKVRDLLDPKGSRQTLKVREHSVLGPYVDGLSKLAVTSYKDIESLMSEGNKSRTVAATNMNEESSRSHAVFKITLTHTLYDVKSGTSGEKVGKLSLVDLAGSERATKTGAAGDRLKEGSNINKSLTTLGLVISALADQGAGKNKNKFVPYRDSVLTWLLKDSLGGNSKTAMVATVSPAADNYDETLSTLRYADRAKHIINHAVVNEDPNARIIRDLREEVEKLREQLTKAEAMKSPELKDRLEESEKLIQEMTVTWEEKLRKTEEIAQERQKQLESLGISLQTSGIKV

[3] = molecular target: T2, UNC-104 (MD-NC-CC1, residue 1-446) (Caenorhabditis elegans, UniProt P23678, C184Y); experiment: microtubule-stimulated ATPase assay; format: biochemical; conditions: microtubules present
T2 construct: MD-NC-CC1 fragment, residues 1-446, bacterial expression
T2 sequence (P23678 1-446 C184Y): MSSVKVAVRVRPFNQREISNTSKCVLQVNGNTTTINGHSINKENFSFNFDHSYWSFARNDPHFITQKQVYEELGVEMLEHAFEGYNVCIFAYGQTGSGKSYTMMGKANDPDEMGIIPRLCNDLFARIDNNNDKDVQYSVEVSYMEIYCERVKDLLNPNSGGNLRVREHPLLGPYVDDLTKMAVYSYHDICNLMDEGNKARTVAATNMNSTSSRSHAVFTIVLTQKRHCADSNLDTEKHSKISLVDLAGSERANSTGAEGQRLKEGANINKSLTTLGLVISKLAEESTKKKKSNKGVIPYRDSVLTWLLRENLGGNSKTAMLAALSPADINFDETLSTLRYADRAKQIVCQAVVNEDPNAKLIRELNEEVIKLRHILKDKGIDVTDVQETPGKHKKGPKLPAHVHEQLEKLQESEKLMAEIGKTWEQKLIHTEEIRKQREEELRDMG

KIF13B MD-NC-CC1 [4] = molecular target: T3, KIF13B MD-NC-CC1 (Rattus norvegicus, UniProt A0A0G2K8Z9, , form not given); experiment: microtubule-stimulated ATPase, malachite green phosphate endpoint assay; format: biochemical; conditions: microtubules present
T3 construct: MD-NC-CC1 fragment (motor domain, neck coil, CC1)
T3 sequence (A0A0G2K8Z9 48-490 T239Y limits assumed): T1 sequence (A0A0G2K8Z9 48-490 limits assumed) with T192Y

[5] = molecular target: T4, UNC-104 (MD-NC-CC1, residue 1-446) (Caenorhabditis elegans, UniProt P23678); experiment: microtubule-stimulated ATPase assay; format: biochemical; conditions: microtubules present
T4 construct: MD-NC-CC1 fragment, residues 1-446, bacterial expression
T4 sequence (P23678 1-446): T2 sequence (P23678 1-446 C184Y) with Y184C

Row | Compound | stoichiometry N [1] | microtubule-stimulated ATPase, malachite green phosphate endpoint assay (KIF13B MD-NC-CC1 [2]) | microtubule-stimulated ATPase assay [3] | microtubule-stimulated ATPase, malachite green phosphate endpoint assay (KIF13B MD-NC-CC1 [4]) | microtubule-stimulated ATPase assay [5]
1 | KIF13B T192Y-MD-NC-CC1 mutant (domain or fragment) | 2 | – | – | – | –
2 | Nc1ncnc2c1ncn2[C@@H]1O[C@H](COP(=O)(O)OP(=O)(O)OP(=O)(O)O)[C@@H](O)[C@H]1O [ATP] | – | Microtubule-stimulated ATPase activity of the KIF13B MD-NC-CC1 fragment | the C184Y mutant undergo a significant enhancement in its ATPase activity | both the T192Y and L397F mutations significantly restored the ATPase activity of the MD-NC-CC1 fragment | the MD-NC-CC1 fragment of UNC-104 shows the moderate MT-stimulated ATPase activity
